From patent US20010044463A1, “Methods for controlling gram negative bacteria in mammals” (priority 1997, published 2001)

Experiments:
[1] = test system: H. pylori ATCC 43504; assay: Minimum Inhibitory Concentration (MIC) blood agar plate growth inhibition; format: cell-based, Helicobacter pylori
Protocol: Subsequent dilutions were made in ethanol immediately prior to use. […] Subsequent dilutions were made in BHI medium (Brain heart infusion broth, Difco #0037-07-0) immediately prior to use.
(§1) Blood agar base (BAB) was prepared containing 1.5% agar and autoclaved. 20 ml samples of autoclaved BAB were poured into 50 mL tubes and placed in a 56° C. water bath.
The mixed media preparation was poured into a petri dished and allowed to solidify.
(§2) Prior to inoculation of petri plates, bacteria or cultures were examined for morphology under a phase microscope to confirm motility and physical characteristics, e.g., spiral shaped. The organisms were washed off the plate into PBS (Phosphate buffered saline) (80.0 g NaCl, 2.0 g KCl, 2.4 g KH2PO4 11.5 g Na2HPO4 or 24.4 g Na2HPO4/2H2O per 1 liter deionized water, pH 7.2, sterilized by autoclaving) and diluted into BHI at a concentration of 10^8/ml (O.D. of 0.3 units diluted 1:30). Ten microliters of solution containing 10^6 organisms were spread onto a petri plate and grown under microaerophilic conditions for 3 days unless specified. Control organisms were grown under microaerophilic conditions.
(§3) Inhibition of growth was determined by the amount of colonies present within the petri plate. The following factors were used for growth inhibition: ±=0-20 colonies, +=20-50 colonies, ++=50-200 colonies and +++=200+ colonies.

[2] = test system: H. pylori (urease negative) (Wild strain of ATCC 43504); assay: as above; format: cell-based, Helicobacter pylori; details: Table III
Protocol: (§4) Monensin (Sigma Cat. No. M-5273) was dissolved in 100% absolute ethanol (AAPER Alcohol and Chemical Co.) at a concentration of 20 mg/ml. Subsequent dilutions were made in ethanol immediately prior to use. Nigericin (Sigma Cat. No. N-7143) was dissolved in DMSO at 2 mg/ml. Subsequent dilutions were made in BHI medium (Brain heart infusion broth, Difco #0037-07-0) immediately prior to use.
as §1
(§5) 100 μl of a drug (final concentration equivalent to 1:200 of original concentration) and 1.2 ml of sheep blood (Colorado Senun Company # CS-1112) (blood diluted in a 1:1 buffer providing a 3% concentration of blood per 20 ml medium sample) were added to 20 ml sample of media and mixed. The mixed media preparation was poured into a petri dished and allowed to solidify.
as §2, §3

[3] = test system: Staph ATCC 14775; assay: Blood agar plate growth inhibition, control organism; format: cell-based; details: Table XIV, Non-microaerophilic conditions
Protocol: as §4, §1, §5
as §2, with “Control organisms were grown under microaerophilic conditions.” left out
as §3

[4] = final drug concentration 0.1 ng/ml
[5] = final drug concentration 10 ng/ml
[6] = final drug concentration 100 ng/ml
[7] = final drug concentration 1 μg/ml
[8] = final drug concentration 10 μg/ml

## CO[C@@H]1C[C@@H](C[C@H]2CC[C@H](C)[C@H]([C@@H](C)C(=O)O)O2)O[C@]2(O[C@](C)([C@H]3CC[C@@](C)([C@@H]4O[C@@H]([C@H]5O[C@@](O)(CO)[C@H](C)C[C@@H]5C)C[C@@H]4C)O3)C[C@H]2C)[C@@H]1C [Nigericin, nigericin]
[1]; Table I, final drug concentration 0.1 ng/ml
  growth (amount of colonies present within the petri plate): (+++) (+++=200+ colonies)
[1]; Table I, final drug concentration 1 ng/ml
  growth (amount of colonies present within the petri plate): (+++) (+++=200+ colonies)
[1]; Table I, final drug concentration 10 ng/ml
  growth (amount of colonies present within the petri plate): (+++) (+++=200+ colonies)
[1]; Table I, final drug concentration 100 ng/ml
  growth (amount of colonies present within the petri plate): (++) (++=50-200 colonies)
[1]; Table I, final drug concentration 1 μg/ml
  growth (amount of colonies present within the petri plate): No growth
[1]; Table I, final drug concentration 10 μg/ml
  growth (amount of colonies present within the petri plate): No growth
[1]; Table II, urease positive, final drug concentration 1 ng/ml
  growth (amount of colonies present within the petri plate): (+++) (+++=200+ colonies)
[1]; Table II, urease positive, final drug concentration 10 ng/ml
  growth (amount of colonies present within the petri plate): (+++) (+++=200+ colonies)
[1]; Table II, urease positive, final drug concentration 1 μg/ml
  growth (amount of colonies present within the petri plate): No growth
[1]; Table II, urease positive, final drug concentration 10 μg/ml
  growth (amount of colonies present within the petri plate): No growth
[1]; Table II, urease positive, final drug concentration 0.1 nglml
  growth (amount of colonies present within the petri plate): (+++) (+++=200+ colonies)
[1]; Table IV, urease positive, final drug concentration 0.1 ng/ml
  growth (amount of colonies present within the petri plate): (+++) (+++=200+ colonies)
[1]; Table IV, urease positive, final drug concentration 1 ng/ml
  growth (amount of colonies present within the petri plate): (+++) (+++=200+ colonies)
[1]; Table IV, urease positive, final drug concentration 10 ng/ml
  growth (amount of colonies present within the petri plate): (+++) (+++=200+ colonies)
[1]; Table IV, urease positive, final drug concentration 100 ng/ml
  growth (amount of colonies present within the petri plate): (+++) (+++=200+ colonies)
[1]; Table IV, urease positive, final drug concentration 1 μg/ml
  growth (amount of colonies present within the petri plate): No growth
[1]; Table IV, urease positive, final drug concentration 10 μg/ml
  growth (amount of colonies present within the petri plate): No growth
[1]; Table V, in the presence of 10 mM urea, final drug concentration 0.1 ng/ml, Nigericin assay done in duplicate
  growth (amount of colonies present within the petri plate): (+++)^1 (+++=200+ colonies)
[1]; Table V, in the presence of 10 mM urea, final drug concentration 1 ng/ml, Nigericin assay done in duplicate
  growth (amount of colonies present within the petri plate): (+++)^1 (+++=200+ colonies)
[1]; Table V, in the presence of 10 mM urea, final drug concentration 10 ng/ml, Nigericin assay done in duplicate
  growth (amount of colonies present within the petri plate): (++)^1 (++=50-200 colonies)
[1]; Table V, in the presence of 10 mM urea, final drug concentration 100 ng/ml, Nigericin assay done in duplicate
  growth (amount of colonies present within the petri plate): (+++)^1 (+++=200+ colonies)
[1]; Table V, in the presence of 10 mM urea, final drug concentration 1 μg/ml, Nigericin assay done in duplicate
  growth (amount of colonies present within the petri plate): (±)^1 (±=0-20 colonies)
[1]; Table V, in the presence of 10 mM urea, final drug concentration 10 μg/ml, Nigericin assay done in duplicate
  growth (amount of colonies present within the petri plate): No growth^1
[1]; Table VI, in the presence of 2.5 mM urea, final drug concentration 1 ng/ml
  growth (amount of colonies present within the petri plate): (+++) (+++=200+ colonies)
[1]; Table VI, in the presence of 2.5 mM urea, final drug concentration 10 ng/ml
  growth (amount of colonies present within the petri plate): (+++) (+++=200+ colonies)
[1]; Table VI, in the presence of 2.5 mM urea, final drug concentration 1 μg/ml
  growth (amount of colonies present within the petri plate): (±) (±=0-20 colonies)
[2]; [4]
  growth (amount of colonies present within the petri plate): (+++) (+++=200+ colonies)
[2]; [5]
  growth (amount of colonies present within the petri plate): (+++) (+++=200+ colonies)
[2]; [6]
  growth (amount of colonies present within the petri plate): (+++) (+++=200+ colonies)
[2]; [7]
  growth (amount of colonies present within the petri plate): No growth
[2]; [8]
  growth (amount of colonies present within the petri plate): No growth
[3]; [4]
  growth (amount of colonies present within the petri plate): (+++) (+++=200+ colonies)
[3]; final drug concentration 1 ng/ml
  growth (amount of colonies present within the petri plate): (+++) (+++=200+ colonies)
[3]; [5]
  growth (amount of colonies present within the petri plate): (+++) (+++=200+ colonies)
[3]; [6]
  growth (amount of colonies present within the petri plate): (+++***) (+++=200+ colonies)
[3]; [7]
  growth (amount of colonies present within the petri plate): No growth
[3]; [8]
  growth (amount of colonies present within the petri plate): No growth
